# Results published in patent US8936787B2, “Peptides promoting lipid efflux” (The United States of America as represented by the …, priority 2008, dated 2015).
# Entries after “also recorded” stand apart in the source; their conditions may differ. Square brackets hold non-standard residues; d marks the D form. Ends that are not written are not given here. Peptide text beside a SMILES is read from it.
# What was measured:
# [1] = test system: HeLa cells stably transfected with human ABCA1 cDNA (ABCA1 cells); assay: Cholesterol and phospholipid efflux from ABCA1 cells; assay type: cell-based; conditions: for cholesterol efflux from ABCA1 cells to detergent: sublytic concentration (taurodeoxycholate 0.02%, 1 hour)
# Protocol: (§1) Percentage efflux was calculated after subtracting the radioactive counts in the blank media (αMEM plus 1 mg/ml of BSA), and expressed as the percent of total radioactive counts removed from the cells during the efflux period.
# (§2) Cell fixation was performed by a 10 minute treatment with 3% paraformaldehyde in phosphate buffered saline (PBS), followed by three washes with blank media. Lactate dehydrogenase (LDH) release from cells into the media was measured enzymatically (Roche Diagnostics, Indianapolis, Ind.) and expressed, after subtraction of LDH released into blank media, as the percentage of total cell LDH. Total cell LDH was determined after cell solubilization with 1% Triton X-100.
# control cells = assay: LDH release from control cells; assay type: cell-based; conditions: 40 μg/ml for 18 hours
# Protocol: as §2
# (§3) The microsolubilization of the plasma membrane of cells could, therefore, be potentially cytotoxic, but no morphologic effect was observed on the cells after incubation with the peptides or apoA-I, during the efflux experiments. Incubation of the cells with L-37pA and D-37pA at the maximum concentration and time used for the efflux studies (40 μg/ml for 18 hours) did, however, consistently result in the release of a small amount of LDH from both cell lines (control cells: L-37pA (6.1%±0.2), D-37pA (6.6%±0.1); ABCA1 cells: L-37pA (4.3%±0.04), D-37pA (5.7%±0.1)).
# ABCA1 cells [2] = assay: LDH release from ABCA1 cells; assay type: cell-based, human; conditions: 40 μg/ml for 18 hours
# Protocol: as §2, §3
# [3] = test system: HeLa cells transfected with only a hygromycin-resistant control plasmid (control cells); assay: Cholesterol and phospholipid efflux from control cells; assay type: cell-based; conditions: for lipid (cholesterol and phospholipid) efflux from control cells: 18 hours
# Protocol: as §1, §2
# C57B1/6 mice = assay: Plasma triglycerides in C57B1/6 mice, 18A-C-II; assay type: in vivo; conditions: 1 mg (30 mg/kg) co-injected
# Protocol: FIG. 18 is a graph illustrating the ability of 18A-C-II:POPC peptide (peptide with SEQ ID NO: 70) to prevent hypertriglyceridemia. The 18A-C-II:POPC peptide was lipidated with POPC at the ratio of 1:7. Hypertriglyceridemia was induced in C57B1/6 mice by a 2 mg (60 mg/kg) bolus intravenous (IV) injection of free 5A peptide (Δ). […] In addition, a single IV dose of 1 mg of the 18A-C-II:POPC peptide lowered the plasma triglyceride levels in normal C57B1 mice (□) compared to saline (⋄).
# 18A-C-II peptide (SEQ ID NO: 70) was complexed with POPC at a 1:7 molar ratio using a co-lyophilization procedure by which the free peptide and POPC were co-dissolved in glacial acetic acid and lypophilized. The dry powder was reconstituted with saline and heated between 37° C. to 50° C. to reconstitution, which results in a clear solution of particles containing both the 18A-C-II peptide and POPC.
# Hypertriglyceridemia was induced in C57B1/6 mice by a 2 mg (60 mg/kg) bolus IV injection of free 5A peptide (A). […] In addition, a single IV dose of 1 mg of the 18A-C-II:POPC peptide lowered the plasma triglyceride levels in normal C57B1 mice (□) compared to saline (⋄).
# BHK and BHK-ABCA1 cells = assay: Cholesterol efflux from BHK and BHK-ABCA1 cells; assay type: cell-based; conditions: 20 ug/ml free peptide, 18 hours
# Protocol: FIG. 23 is a graph illustrating the effect of 18A-C-II peptide on cholesterol efflux. BHK and BHK-ABCA1 cells were loaded with ^3H-cholesterol for 24 hours at 37° C. and then 20 ug/ml of the free 18A-C-II peptide was added as cholesterol acceptor to efflux for 18 hours. Percentage efflux was calculated by subtracting the radioactive counts in the blank from the radioactive counts in the presence of an acceptor and then dividing the result by the sum of the radioactive counts in the medium plus the cell fraction.
# The effect of 18A-C-II peptide on cholesterol efflux was investigated by loading BHK and BHK-ABCA1 cells with ^3H-cholesterol for 24 hours at 37° C. and then adding 20 ug/ml of the free 18A-C-II peptide as cholesterol acceptor to efflux for 18 hours. Percentage efflux was calculated by subtracting the radioactive counts in the blank from the radioactive counts in the presence of an acceptor and then dividing the result by the sum of the radioactive counts in the medium plus the cell fraction.
# red blood cells = assay: Red blood cell hemolysis assay; assay type: cell-based; conditions: 1 hour at 37° C., maximum dose tested
# Protocol: Red blood cells were incubated with the indicated concentration of the peptides for 1 hour at 37° C. Results are expressed as the mean of triplicates ±1 SD.
# Approximately 25% of the red blood cells were lysed after 1 hour at the maximum dose tested (FIG. 9). Overall, the modified peptides containing the Ala substitutions were less cytotoxic, and the degree of cytotoxicity closely correlated with the number of Ala substitutions.
# Normal skin fibroblasts = assay: Cholesterol efflux from normal skin fibroblasts; assay type: cell-based; conditions: 10 μg/ml, 18 hour
# Protocol: (§4) FIG. 5 is a graph illustrating ABCA1-independent efflux of cholesterol from Tangier disease fibroblasts. Normal skin fibroblasts (open bars) and Tangier disease skin fibroblasts (solid bars) were examined for their ability to efflux cholesterol over an 18 hour period when treated with 10 μg/ml apoA-I (A), 10 μg/ml L-37pA (L), and 10 μg/ml D-37pA (D). Results are expressed as the mean of triplicates ±1 SD.
# (§5) In order to confirm that the residual lipid efflux from the control cells to L-37pA and D-37pA (see FIG. 1) was not due to a low level of endogenous ABCA1, a Tangier disease fibroblast cell line with a truncated non-functional ABCA1 transporter (Remaley et al., Proc. Natl. Acad. Sci. USA 96:12685-12690, 1999) was evaluated for lipid efflux (FIG. 5).
# [4] = test system: Tangier disease fibroblast cell line with a truncated non-functional ABCA1 transporter; assay: Cholesterol efflux from Tangier disease fibroblasts; assay type: cell-based; conditions: 10 μg/ml, 18 hour
# Protocol: as §4, §5
# ABCA1 cells [5] = assay: Competitive binding of radiolabeled L-37pA to ABCA1 cells; set-up: species or system human; conditions: 8 μM, the maximum concentration tested; 4° C.
# Protocol: FIGS. 7A-7B are a pair of graphs illustrating the competitive binding of L-37pA peptide to ABCA1 transfected cells and control cells. ABCA1 cells (FIG. 7A) and control cells (FIG. 7B) were incubated for 3 hours at 4° C. with the indicated concentration of the competitor proteins [L-37pA (triangle), D-37pA (open square), apoA-I (closed circle), L2D-37pA (star), and L3D-37pA (open circle)] and were then washed and incubated for 1 hour at 4° C. with 1 μg/ml of radiolabeled L-37pA peptide. Results are expressed as the mean of triplicates ±1 SD.
# The L-37pA peptide was labeled with ^125I using iodine monochloride. Confluent cells grown on 12-well plates were incubated for 3 hours at 4° C. with the indicated concentration of the unlabeled competitor peptide in αMEM media plus 10 mg/ml of BSA (FIG. 7). […] Cells were washed three times, and cell bound counts were determined after solubilization with 0.1 N NaOH.
# A two-step sequential competitive binding assay was performed in order to prevent any potentially interfering interaction of the radiolabeled peptide with the competitor proteins (Mendez et al., J. Clin. Invest. 94:1698-1705, 1994). The cells were first incubated with the competitor proteins for 3 hours, washed, and then the cell binding of the radiolabeled L-37 peptide was measured. […]
# [6] = 10 μg/ml, 30 hour efflux period
compound,measurement,setting,value
"C[C@H](CCC(=O)NCCC[N+](C)(C)CCCS(=O)(=O)[O-])[C@H]1CC[C@H]2[C@@H]3[C@H](O)C[C@@H]4C[C@H](O)CC[C@]4(C)[C@H]3C[C@H](O)[C@]12C [CHAPS, reference compound]",cholesterol efflux from ABCA1 cells to detergent,[1],Nearly identical results
CC(C)C[C@@H](NC(=O)[C@@H](Cc1c[nH]c2ccccc12)NC(=O)[C@H](N)CC(=O)O)C(=O)N[C@H](CCCCN)C(=O)N[C@H](C)C(=O)N[C@H](Cc1ccccc1)C(=O)N[C@H](Cc1ccc(O)cc1)C(=O)N[C@H](CC(=O)O)C(=O)N[C@H](CCCCN)C(=O)N[C@@H](C(=O)N[C@H](C)C(=O)N[C@H](CCC(=O)O)C(=O)N[C@H](CCCCN)C(=O)N[C@H](CC(C)C)C(=O)N[C@H](CCCCN)C(=O)N[C@H](CCC(=O)O)C(=O)N[C@H](C)C(=O)N[C@H](Cc1ccccc1)C(=O)N1CCC[C@@H]1C(=O)N[C@H](CC(=O)O)C(=O)N[C@H](Cc1c[nH]c2ccccc12)C(=O)N[C@H](CC(C)C)C(=O)N[C@H](CCCCN)C(=O)N[C@H](C)C(=O)N[C@H](Cc1ccccc1)C(=O)N[C@H](Cc1ccc(O)cc1)C(=O)N[C@H](CC(=O)O)C(=O)N[C@H](CCCCN)C(=O)N[C@@H](C(=O)N[C@H](C)C(=O)N[C@H](CCC(=O)O)C(=O)N[C@H](CCCCN)C(=O)N[C@H](CC(C)C)C(=O)N[C@H](CCCCN)C(=O)N[C@H](CCC(=O)O)C(=O)N[C@H](C)C(=O)N[C@H](Cc1ccccc1)C(=O)O)C(C)C)C(C)C [D-37pA] (H-[dD][dW][dL][dK][dA][dF][dY][dD][dK][dV][dA][dE][dK][dL][dK][dE][dA][dF][dP][dD][dW][dL][dK][dA][dF][dY][dD][dK][dV][dA][dE][dK][dL][dK][dE][dA][dF]-OH; N-terminus and C-terminus assumed),"release of LDH from control cells, percentage of total cell LDH",control cells,6.6%±0.1
same,"release of LDH from ABCA1 cells, percentage of total cell LDH",ABCA1 cells [2],5.7%±0.1
"C[C@H](CCC(=O)NCCS(=O)(=O)O)[C@H]1CC[C@H]2[C@@H]3CC[C@@H]4C[C@H](O)CC[C@]4(C)[C@H]3C[C@H](O)[C@]12C [taurodeoxycholate, reference compound]",cholesterol efflux from control cells to detergent,"[3]; taurodeoxycholate 0.02%, 1 hour",Approximately the same amount
same,cholesterol efflux from ABCA1 cells to detergent,[1],small amount of cholesterol efflux
DWLKAFYDKVAEKLKEAFPDLYSKSTAAMSTYTGIFTDQVLSVLKGEE [18A-C-II],increase in plasma triglycerides induced by free 5A peptide (60 mg/kg IV),C57B1/6 mice,significantly reduced; also recorded: significantly halted
same,"cholesterol efflux, BHK-ABCA1 versus BHK cells",BHK and BHK-ABCA1 cells,significant difference
DWLKAFYDKVAEKLKEAFPDWAKAAYDKAAEKAKEAA [5A],red blood cells lysed (hemolysis),red blood cells,no appreciable hemolysis
DWLKAFYDKVAEKLKEAFPDWLKAAYDKAAEKAKEAA [4A],red blood cells lysed (hemolysis),red blood cells,no appreciable hemolysis
DWLKAFYDKVAEKLKEAFPDWLKAAYDKVAEKAKEAA [3A],red blood cells lysed (hemolysis),red blood cells,moderate degree of hemolysis
"DWLKAFYDKVAEKLKEAFPDWLKAFYDKVA EKLKEAF [37pA, reference compound]",lipid (cholesterol and phospholipid) efflux from control cells,[3],also able to mediate cholesterol efflux
same,lipid (cholesterol and phospholipid) efflux from ABCA1 cells,[1]; 18 hours,promoted ABCA1-mediated cholesterol efflux
DWLKAFYDKVAEKLKEAFPDWLKAFYDKVAEKAKEAA [2A],red blood cells lysed (hemolysis),red blood cells,moderate degree of hemolysis
DWLKAFYDKVAEKLKEAFPDWLKAFYDKVAEKAKEAF [1A],red blood cells lysed (hemolysis),red blood cells,moderate degree of hemolysis
DWLKAFYDKVAEKLKEAFPDWLKAFYDKVAEKLKEAF [L-37pA],"release of LDH from control cells, percentage of total cell LDH",control cells,6.1%±0.2
same,"release of LDH from ABCA1 cells, percentage of total cell LDH",ABCA1 cells [2],4.3%±0.04
NP-40 [reference compound],cholesterol efflux from ABCA1 cells to detergent,[1],Nearly identical results
"RMRITERDDFRGQMSEITDDCPSLQDRFHLTEVHSLRVLEGS (Gamma crystalline peptide.) [contains two non-amphipathic alpha helices, reference compound]",lipid (cholesterol and phospholipid) efflux from control cells,[3],completely ineffective
same,lipid (cholesterol and phospholipid) efflux from ABCA1 cells,[1]; 18 hours,completely ineffective
"apoA-I: apolipoprotein A-I, the predominant protein constituent of HDL",cholesterol efflux from normal fibroblasts,Normal skin fibroblasts,effluxed cholesterol
same,cholesterol efflux from control cells over the time course,[3]; [6],no significant increase above background
same,lipid (cholesterol and phospholipid) efflux from control cells,[3],do not efflux significant amounts; also recorded: unable
same,cholesterol efflux from Tangier disease fibroblasts,[4],did not efflux significant amounts
same,binding of labeled L-37pA to ABCA1 cells blocked by competitor,ABCA1 cells [5],approximately 30%
same,cholesterol efflux from ABCA1 cells after fixation with paraformaldehyde,"[1]; 10 μg/ml, 18 hours, 3% paraformaldehyde",completely blocked
same,time at which cholesterol efflux from ABCA1 cells was first detectable,[1]; [6],2 h
same,lipid (cholesterol and phospholipid) efflux from ABCA1 cells,[1]; 18 hours,do so after transfection with ABCA1
same,protein concentration at which lipid efflux began to show saturation,[1]; 18 hours,~10 µg/mL
same,molar concentration at which lipid efflux began to show saturation,[1]; corresponds to 10 μg/ml,0.36 µM
